Measured values as given in patent US7045591B2, “Selective cyclic peptides with melanocortin-4 receptor (MC4-R) agonist activity” (Hoffmann-La Roche Inc., priority 2000, dated 2006).
Bridge positions count the residues as written; N and C are the ends. Square brackets hold non-standard residues; d marks the D form. Peptide text beside a SMILES is read from it. * marks the point of attachment. ξ: configuration not given here. Ac6c(4-Ph-cis-to-N) = N[C@]1(C(=O)O)CC[C@H](c2ccccc2)CC1; Pentanoyl = CCCCC(=O)*; ξK = NCCCCC(N)C(=O)O

Target: T1, MC-4 receptor (Homo sapiens, UniProt P32245)
T1 construct: expressed in transfected cells; host or cells: HEK 293 cells (G418 selected)
Assay: Agonist assay: cAMP response in HEK 293 cells transfected with the MC-4 receptor (Biotrak-cAMP SPA)
Type: cell-based
Details: HEK 293 cells transfected with MC-4 receptor, cAMP increase; read-out: EC50 for MC4-R agonist activity
Procedure: Description: HEK 293 cells transfected with either the MC-4 receptor or MC-1 receptor were grown in 96 well plates. The cells were stimulated with either 100 nM NDP-αMSH or screening compounds. Cyclic AMP was extracted from the cells and concentrations were determined using a Biotrak-cAMP SPA assay. Agonists were identified as those compounds causing an increase in cAMP.
Cell Culture: HEK 293 cells transfected with either the MC-4 receptor or MC-1 receptor were cultured in 75 cm^2 flasks in D-MEM supplemented with 10% FCS and 500 μg/ml G418. Cells were trypsinized and split 1:3 into 96 well flat-bottom tissue culture treated plates. Cells were stimulated at confluence (day 2-4).
cAMP Response: Compounds serially diluted in 100% DMSO were further diluted 1:200 (2.5 μl compound dilution +500 μl media) in D-MEM containing 10% FBS and 0.1 mM IBMX. For unstimulated cells, 2.5 μl of DMSO was added to 500 μl of media. For NDP-αMSH stimulated cells, 2.5 μl of 20μM NDP-αMSH in 100% DMSO was added to 500μl of media (final conc. 100 nM). Final concentration of DMSO in all wells was 0.5%.
Note: Each sample was run in duplicate on separate plates. […]
cAMP Assay: The extracted samples and all reagents included in the kit were brought to room temperature. […] [125I ]cAMP binding to the SPA beads was determined by counting each plate for 2 minutes on a Packard TopCount™. […]

T1 sequence (P32245 whole entry): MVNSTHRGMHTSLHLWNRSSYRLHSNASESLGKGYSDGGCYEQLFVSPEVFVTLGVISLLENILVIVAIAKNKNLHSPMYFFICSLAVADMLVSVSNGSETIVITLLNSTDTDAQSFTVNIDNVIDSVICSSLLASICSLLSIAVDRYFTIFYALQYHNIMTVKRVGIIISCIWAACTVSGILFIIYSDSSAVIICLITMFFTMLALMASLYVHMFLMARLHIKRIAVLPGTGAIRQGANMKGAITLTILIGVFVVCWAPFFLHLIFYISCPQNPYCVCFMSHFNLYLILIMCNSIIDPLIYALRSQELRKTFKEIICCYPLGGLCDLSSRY

CCCCC(=O)N[C@H]1CC(=O)NCCCCC(C(N)=O)NC(=O)[C@H](Cc2c[nH]c3ccccc23)NC(=O)[C@H](C)NC(=O)[C@@H](Cc2ccccc2)NC(=O)[C@]2(CC[C@H](c3ccccc3)CC2)NC1=O (stereo partly drawn) [Penta-cyclo(Asp-Lys)-Asp-Apc-(D)Phe-Ala-Trp-Lys-NH2] (Pentanoyl-D[Ac6c(4-Ph-cis-to-N)][dF]AW[ξK]-NH2; lactam 1-6)
EC50: < 500 nM
